Assay results: patent publication US6576640B1, “Benzisoxazoles and phenones as α2-antagonists” (Janssen Pharmaceutica N.V., priority 1998, dated 2003)

Key:
[1] = molecular target: dopamine D2 receptor (Homo sapiens, UniProt P14416); assay: Receptor binding affinity for dopamine D2 (dissociation α2a / D2); conditions: for Ratio D2/α2a (dissociation between the two receptors): ratio of IC50 D2 to IC50 α2a; for IC50: receptor binding affinity, dopamine D2
Excerpt: As already mentioned above, dopamine D2 antagonism may lead to an increased risk of EPS. Thus, the larger the dissociation between α2a and D2, the better. The columns headed “dissociation” show the IC50 value in molar (M) for the α2a receptor and the D2 receptor. By “Ratio” is meant the ratio D2/αa and this is an indication for the dissociation between said two receptors.

[2] = molecular target: T1, cloned human α2A receptors (Homo sapiens, UniProt P08913); assay: In vitro radioligand binding affinity for α2A receptor (3H-rauwolscine competition); conditions: read-out: dissociation: IC50 value for the α2a receptor
T1 construct: expressed in transfected cells; host or cells: Chinese Hamster Ovary (CHO) cells
T1 sequence (P08913 1-465): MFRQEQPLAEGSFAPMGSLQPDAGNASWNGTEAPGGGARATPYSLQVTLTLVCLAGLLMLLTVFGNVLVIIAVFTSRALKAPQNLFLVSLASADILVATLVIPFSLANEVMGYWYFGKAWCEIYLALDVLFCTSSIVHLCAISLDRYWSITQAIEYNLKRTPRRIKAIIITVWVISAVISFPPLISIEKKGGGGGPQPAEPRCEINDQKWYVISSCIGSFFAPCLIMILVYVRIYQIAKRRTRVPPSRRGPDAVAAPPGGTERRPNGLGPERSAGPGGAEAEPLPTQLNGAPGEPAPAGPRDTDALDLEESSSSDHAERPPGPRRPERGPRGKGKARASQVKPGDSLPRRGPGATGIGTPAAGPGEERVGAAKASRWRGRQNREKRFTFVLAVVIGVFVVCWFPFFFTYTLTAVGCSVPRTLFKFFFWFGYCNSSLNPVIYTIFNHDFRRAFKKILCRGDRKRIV
Method: The interaction of the compounds of formula (I) with α2 receptors was assessed in in vitro radioligand binding experiments.
In general, a low concentration of a radioligand with a high binding affinity for a particular receptor is incubated with a sample of a tissue preparation enriched in a particular receptor or with a preparation of cells expressing cloned human receptors in a buffered medium. During the incubation, the radioligand binds to the receptor. When equilibrium of binding is reached, the receptor bound radioactivity is separated from the non-bound radioactivity, and the receptor bound activity is counted. The interaction of the test compounds with the receptor is assessed in competition binding experiments. Various concentrations of the test compound are added to the incubation mixture containing the receptor preparation and the radioligand. Binding of the radioligand will be inhibited by the test compound in proportion to its binding affinity and its concentration.
The radioligand used for α2A, α2B and α2C receptor binding is ^3H-rauwolscine and the receptor preparation used is the Chinese Hamster Ovary (CHO) cell expressing cloned human α2A, α2B and α2C receptors.

dopamine D2 receptor, sequence (P14416 whole entry, species assumed): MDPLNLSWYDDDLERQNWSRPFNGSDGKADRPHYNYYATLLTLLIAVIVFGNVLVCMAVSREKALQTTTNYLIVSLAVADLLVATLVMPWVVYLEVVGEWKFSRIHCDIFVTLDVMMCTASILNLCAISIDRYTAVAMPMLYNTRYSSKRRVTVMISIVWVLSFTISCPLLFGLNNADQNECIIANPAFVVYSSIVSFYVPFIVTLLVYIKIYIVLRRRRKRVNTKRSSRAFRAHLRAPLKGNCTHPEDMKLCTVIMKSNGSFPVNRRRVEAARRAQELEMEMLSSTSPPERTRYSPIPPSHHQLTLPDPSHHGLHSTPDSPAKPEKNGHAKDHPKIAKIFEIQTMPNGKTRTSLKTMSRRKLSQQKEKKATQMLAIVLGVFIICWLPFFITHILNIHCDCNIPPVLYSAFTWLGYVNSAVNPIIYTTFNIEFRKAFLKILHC

Row | Compound | Ratio D2/α2a (dissociation between the two receptors) [1] | IC50 [1] | IC50 [2] | melting point
1 | O=C(CCCCCN1CCc2[nH]c3ccccc3c2C1)c1ccc(F)cc1 [Comp. 1] | 79 | 400 nM | 5 nM | 190 °C
2 | O=C(CCCCCN1CCc2oc3ccccc3c2C1)c1ccc(F)cc1 [Comp. 2, 1-(4-fluorophenyl)-6-(1,2,3,4-tetrahydrobenzofuro[3,2-c]pyridin-2-yl)-1-hexanone (E)-2-butenedioate (1:1)] | 1950 | 500 nM | 0.26 nM | –
3 | O=C(CCCN1CCc2[nH]c3ccccc3c2C1)c1ccc(F)cc1 [reference compound] | 2.5 | 100 nM | 41 nM | –
4 | O=C(CCCN1CCc2oc3ccccc3c2C1)c1ccc(F)cc1 [reference compound] | 102 | 210 nM | 2.1 nM | –
